In one assay the target is human orexin 1 receptors (Homo sapiens (Human), UniProt O43613). The assay is described as follows: Calcium Accumulation in Cells (FLIPR), antagonism of orexin A. To be noted: for inhibition at 10 µM: measured at a concentration of 10 μM of compound, read-out: FLIPR hOx1R % inhibition value; for Ki: antagonism of orexin A, Cheng-Prusoff corrected, read-out: FLIPR hOx1R Ki. Type of assay: cell-based.

The next assay deals with human orexin 2 receptors (Homo sapiens (Human), UniProt O43614). The description is as above. The assay is classed as cell-based. To be noted: for Ki: antagonism of orexin A, Cheng-Prusoff corrected, read-out: FLIPR hOx2R Ki; for inhibition at 10 µM: measured at a concentration of 10 μM of compound, read-out: FLIPR hOx2R % inhibition value. An outline of the steps:
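Cells expressing human orexin 2 receptor, loaded with Fluo4-AM (2 μM) plus probenecid (0.1 mM) for 1 h, then washed. Antagonism read as inhibition of the orexin A calcium fluorescence signal (FLIPR).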

Molecules are shown by their SMILES.

Sequence of human orexin 2 receptors (O43614 whole entry): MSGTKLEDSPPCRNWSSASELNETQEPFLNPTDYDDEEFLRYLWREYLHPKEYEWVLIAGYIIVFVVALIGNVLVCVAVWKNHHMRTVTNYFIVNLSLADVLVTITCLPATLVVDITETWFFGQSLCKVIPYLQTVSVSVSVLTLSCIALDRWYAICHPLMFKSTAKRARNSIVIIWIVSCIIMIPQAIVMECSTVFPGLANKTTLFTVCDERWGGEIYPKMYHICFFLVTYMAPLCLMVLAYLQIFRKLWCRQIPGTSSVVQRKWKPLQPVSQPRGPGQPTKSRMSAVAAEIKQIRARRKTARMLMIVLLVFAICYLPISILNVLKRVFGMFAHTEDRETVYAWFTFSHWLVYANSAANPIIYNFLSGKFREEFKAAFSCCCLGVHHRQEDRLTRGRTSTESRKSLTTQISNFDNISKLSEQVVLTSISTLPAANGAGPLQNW
Sequence of human orexin 1 receptors (O43613 whole entry): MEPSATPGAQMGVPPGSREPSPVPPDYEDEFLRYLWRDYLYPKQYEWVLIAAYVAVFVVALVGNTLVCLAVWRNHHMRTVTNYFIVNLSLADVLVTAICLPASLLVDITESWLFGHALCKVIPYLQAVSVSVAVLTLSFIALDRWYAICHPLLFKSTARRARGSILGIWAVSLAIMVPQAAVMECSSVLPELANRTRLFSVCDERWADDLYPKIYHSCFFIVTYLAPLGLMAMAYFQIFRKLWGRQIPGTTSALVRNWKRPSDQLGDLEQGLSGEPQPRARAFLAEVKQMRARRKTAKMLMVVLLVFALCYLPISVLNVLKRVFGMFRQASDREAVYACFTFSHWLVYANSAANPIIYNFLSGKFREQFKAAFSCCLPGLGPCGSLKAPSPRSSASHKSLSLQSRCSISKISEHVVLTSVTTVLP

A word on the inhibition: it is the share of the control response that was lost under treatment. As a reminder, the Ki is the dissociation constant of the complex between target and ligand, obtained from inhibition or displacement. Turning to `Cc1nc(C(C)NC(=O)COc2cc(C(F)(F)F)c3c(-c4ccccc4)nn(C)c3n2)c(C)s1` (centres unmarked) [Example 1.40, N-(1-(2,5-dimethylthiazol-4-yl)ethyl)-2-(1-methyl-3-phenyl-4-(trifluoromethyl)-1H-pyrazolo[3,4-b]pyridin-6-yloxy)acetamide], the inhibition at 10 µM on human orexin 1 receptors is 37%. Besides, at human orexin 2 receptors, the Ki was 2900 nM.
Regarding `Cc1ccc([C@H](C)NC(=O)COc2cc(C(C)C)c3c(C4CC4)nn(C)c3n2)cc1` [Example 6.11, (S)-2-(3-cyclopropyl-4-isopropyl-1-methyl-1H-pyrazolo[3,4-b]pyridin-6-yloxy)-N-(1-p-tolylethyl)acetamide], the results for the Ki at human orexin 1 receptors and on human orexin 2 receptors were 691 nM and 208 nM, respectively.
On to `Cn1nc(-c2ccccc2)c2c(C(F)(F)F)cc(OCC(=O)NCc3cccc(Cl)c3)nc21` [Example 1.43, N-(3-chlorobenzyl)-2-(1-methyl-3-phenyl-4-(trifluoromethyl)-1H-pyrazolo[3,4-b]pyridin-6-yloxy)acetamide], for which the inhibition at 10 µM at human orexin 1 receptors amounted to 24%. Besides, the inhibition constant (Ki) at human orexin 2 receptors was 2060 nM.
On the same counts, the results for `Cn1nc(-c2ccccc2)c2c(C(F)(F)F)cc(OCC(=O)NC3CCCCC3)nc21` [Example 1.9, N-cyclohexyl-2-(1-methyl-3-phenyl-4-(trifluoromethyl)-1H-pyrazolo[3,4-b]pyridin-6-yloxy)acetamide] are 32% and 2500 nM.
Regarding `Cn1nc(-c2ccccc2)c2c(C(F)(F)F)cc(OCC(=O)NCc3ccc(Cl)cc3)nc21` [Example 1.11, N-(4-chlorobenzyl)-2-(1-methyl-3-phenyl-4-(trifluoromethyl)-1H-pyrazolo[3,4-b]pyridin-6-yloxy)acetamide], the inhibition constant Ki stood at 2010 nM on human orexin 1 receptors and 251 nM at human orexin 2 receptors.
As to `COc1cccc(CNC(=O)COc2cc(C(F)(F)F)c3c(-c4ccccc4)nn(C)c3n2)c1` [Example 1.33, N-(3-methoxybenzyl)-2-(1-methyl-3-phenyl-4-(trifluoromethyl)-1H-pyrazolo[3,4-b]pyridin-6-yloxy)acetamide], the results for the Ki at human orexin 1 receptors and on human orexin 2 receptors were 1650 nM and 427 nM, respectively.
For the compound `Cc1cc(OCC(=O)NCC2CCCCC2)nc2c1c(C1CC1)nn2C` [Example 7.6, N-(cyclohexylmethyl)-2-(3-cyclopropyl-1,4-dimethyl-1H-pyrazolo[3,4-b]pyridin-6-yloxy)acetamide], the results for the inhibition at 10 µM on human orexin 1 receptors and at human orexin 2 receptors were 18% and less than 10%, respectively.
On the same counts, the results for `C[C@H](NC(=O)COc1cc(C(F)(F)F)c2c(-c3ccccn3)nn(C)c2n1)c1ccccc1` [Example 1.21, (S)-2-(1-methyl-3-(pyridin-2-yl)-4-(trifiuoromethyl)-1H-pyrazolo[3,4-b]pyridin-6-yloxy)-N-(1-phenylethyl)acetamide] are 38% and 29%.
On the same counts, the results for `Cc1ccc2c(c1)C(NC(=O)COc1cc(C)c3c(C4CC4)nn(C)c3n1)CC2` (centres unmarked) [Example 7.28, 2-(3-cyclopropyl-1,4-dimethyl-1H-pyrazolo[3,4-b]pyridin-6-yloxy)-N-(6-methyl-2,3-dihydro-1H-inden-1-yl)acetamide] are 34% and 37%.
`COc1ccc2c(c1)C(NC(=O)COc1cc(C)c3c(C4CC4)nn(C)c3n1)CC2` (centres unmarked) [Example 7.9, 2-(3-cyclopropyl-1,4-dimethyl-1H-pyrazolo[3,4-b]pyridin-6-yloxy)-N-(6-methoxy-2,3-dihydro-1H-inden-1-yl)acetamide]: the Ki was determined as 877 nM at human orexin 1 receptors and 742 nM on human orexin 2 receptors.
`Cc1cc(OCC(=O)N[C@@H](C)C2CCCC2)nc2c1c(C1CC1)nn2C` [Example 6.56, (S)-N-(1-cyclopentylethyl)-2-(3-cyclopropyl-1,4-dimethyl-1H-pyrazolo[3,4-b]pyridin-6-yloxy)acetamide]: the inhibition at 10 µM on human orexin 1 receptors and at human orexin 2 receptors was less than 10% in each case.
For `Cn1nc(-c2ccccc2)c2c(C(F)(F)F)cc(OCC(=O)NCc3cccc(F)c3)nc21` [Example 1.8, N-(3-fluorobenzyl)-2-(1-methyl-3-phenyl-4-(trifluoromethyl)-1H-pyrazolo[3,4-b]pyridin-6-yloxy)acetamide], on human orexin 1 receptors, the inhibition at 10 µM is 39%. Moreover, the Ki on human orexin 2 receptors amounted to 1620 nM.
In the case of `Cc1cc(OCC(=O)NCc2ccc(Cl)nc2)nc2c1c(C1CC1)nn2C` [Example 7.14, N-((6-chloropyridin-3-yl)methyl)-2-(3-cyclopropyl-1,4-dimethyl-1H-pyrazolo[3,4-b]pyridin-6-yloxy)acetamide], the inhibition at 10 µM at human orexin 1 receptors is 31%; on human orexin 2 receptors it was 20%.
As to `Cc1ccc2c(cnn2C)c1CNC(=O)COc1cc(C)c2c(C3CC3)nn(C)c2n1` [Example 7.31, 2-(3-cyclopropyl-1,4-dimethyl-1H-pyrazolo[3,4-b]pyridin-6-yloxy)-N-((1,5-dimethyl-1H-indazol-4-yl)methyl)acetamide], the Ki worked out at 857 nM at human orexin 1 receptors and 833 nM on human orexin 2 receptors.
On to `Cc1cc(OCC(=O)NCCCn2ccnc2)nc2c1c(C1CC1)nn2C` [Example 7.3, N-(3-(1H-imidazol-1-yl)propyl)-2-(3-cyclopropyl-1,4-dimethyl-1H-pyrazolo[3,4-b]pyridin-6-yloxy)acetamide], for which the inhibition at 10 µM on human orexin 1 receptors is less than 10%; on human orexin 2 receptors, 16%.
As to `Cc1ccc([C@H](C)NC(=O)COc2cc(C)c3c(-c4ccnn4C)nn(C)c3n2)cc1` [Example 4.3, (S)-2-(1,4-dimethyl-3-(1-methyl-1H-pyrazol-5-yl)-1H-pyrazolo[3,4-b]pyridin-6-yloxy)-N-(1-p-tolylethyl)acetamide], the figures for the Ki at human orexin 1 receptors and at human orexin 2 receptors were 2680 nM and 2220 nM, respectively.
On to `C[C@@H](NC(=O)COc1cc(C(F)(F)F)c2c(-c3ccccc3)nn(C)c2n1)c1ccccc1` [Example 1.27, (R)-2-(1-methyl-3-phenyl-4-(trifluoromethyl)-1H-pyrazolo[3,4-b]pyridin-6-yloxy)-N-(1-phenylethyl)acetamide], for which the inhibition at 10 µM is 33% on human orexin 1 receptors and 35% at human orexin 2 receptors.
Consider `Cc1cc(OCC(=O)NC(C)c2nc3ccccc3s2)nc2c1c(C1CC1)nn2C` (centres unmarked) [Example 7.23, N-(1-(benzo[d]thiazol-2-yl)ethyl)-2-(3-cyclopropyl-1,4-dimethyl-1H-pyrazolo[3,4-b]pyridin-6-yloxy)acetamide], for which the Ki at human orexin 1 receptors worked out at 564 nM; at human orexin 2 receptors, 150 nM.
With `CC(NC(=O)COc1cc(C(F)(F)F)c2c(-c3ccccc3)nn(C)c2n1)c1ccncc1` (centres unmarked) [Example 1.31, 2-(1-methyl-3-phenyl-4-(trifluoromethyl)-1H-pyrazolo[3,4-b]pyridin-6-yloxy)-N-(1-(pyridin-4-yl)ethyl)acetamide], on human orexin 1 receptors, the Ki stood at 2110 nM. On human orexin 2 receptors, the inhibition at 10 µM turned out to be 40%.
`COc1ccc(CNC(=O)COc2cc(C)c3c(C4CC4)nn(C)c3n2)cc1Cl` [Example 7.16, N-(3-chloro-4-methoxybenzyl)-2-(3-cyclopropyl-1,4-dimethyl-1H-pyrazolo[3,4-b]pyridin-6-yloxy)acetamide]: the Ki at human orexin 1 receptors stood at 3630 nM; on human orexin 2 receptors it was 1030 nM.
Consider `Cc1csc(C(C)NC(=O)COc2cc(C)c3c(C4CC4)nn(C)c3n2)n1` (centres unmarked) [Example 7.22, 2-(3-cyclopropyl-1,4-dimethyl-1H-pyrazolo[3,4-b]pyridin-6-yloxy)-N-(1-(4-methylthiazol-2-yl)ethyl)acetamide], for which the inhibition at 10 µM on human orexin 1 receptors was 40%; on human orexin 2 receptors it was 32%.
Take `Cc1cc(OCC(=O)NC(C)c2ccc3c(c2)ncn3C)nc2c1c(C1CC1)nn2C` (centres unmarked) [Example 6.58, 2-(3-cyclopropyl-1,4-dimethyl-1H-pyrazolo[3,4-b]pyridin-6-yloxy)-N-(1-(1-methyl-1H-benzo[d]imidazol-5-yl)ethyl)acetamide]: the inhibition constant (Ki) at human orexin 1 receptors worked out at 1010 nM; on human orexin 2 receptors it was 382 nM.
On the same counts, the results for `Cc1ccc(C(C)NC(=O)COc2cc(C(F)F)c3c(-c4ccccc4)nn(C)c3n2)cn1` (centres unmarked) [Example 6.18, 2-(4-(difluoromethyl)-1-methyl-3-phenyl-1H-pyrazolo[3,4-b]pyridin-6-yloxy)-N-(1-(6-methylpyridin-3-yl)ethyl)acetamide] are 535 nM and 98 nM.
The like results for `COc1ccc(C(C)NC(=O)COc2cc(C(F)F)c3c(C4CC4)nn(C)c3n2)cn1` (centres unmarked) [Example 6.10, 2-(3-cyclopropyl-4-(difluoromethyl)-1-methyl-1H-pyrazolo[3,4-b]pyridin-6-yloxy)-N-(1-(6-methoxypyridin-3-yl)ethyl)acetamide] were, in that order, 516 nM and 184 nM.
Take `COc1ccc([C@H](C)NC(=O)C(C)Oc2cc(C)c3c(C4CC4)nn(C)c3n2)cc1` (single isomer, unassigned) [Example 6.73, (S or R)-2-(3-cyclopropyl-1,4-dimethyl-1H-pyrazolo[3,4-b]pyridin-6-yloxy)-N-((S)-1-(4-methoxyphenyl)ethyl)propanamide]: the inhibition at 10 µM worked out at 43% on human orexin 1 receptors and 29% on human orexin 2 receptors.
Consider `Cc1ccc(CNC(=O)COc2cc(C)c3c(C4CC4)nn(C)c3n2)cc1` [Example 6.66, 2-(3-cyclopropyl-1,4-dimethyl-1H-pyrazolo[3,4-b]pyridin-6-yloxy)-N-(4-methylbenzyl)acetamide], for which the Ki came out at 3890 nM on human orexin 1 receptors and 1300 nM on human orexin 2 receptors.
`Cc1cccc(C(C)NC(=O)COc2cc(C)c3c(C4CC4)nn(C)c3n2)n1` (centres unmarked) [Example 7.7, 2-(3-cyclopropyl-1,4-dimethyl-1H-pyrazolo[3,4-b]pyridin-6-yloxy)-N-(1-(6-methylpyridin-2-yl)ethyl)acetamide]: the inhibition at 10 µM on human orexin 1 receptors was determined as 32%; at human orexin 2 receptors it was 21%.
For the compound `COc1cccc([C@H](C)NC(=O)COc2cc(C)c3c(C4CC4)nn(C)c3n2)c1` [Example 7.12, (S)-2-(3-cyclopropyl-1,4-dimethyl-1H-pyrazolo[3,4-b]pyridin-6-yloxy)-N-(1-(3-methoxyphenyl)ethyl)acetamide], the Ki at human orexin 1 receptors turned out to be 736 nM. For the same compound, the inhibition at 10 µM at human orexin 2 receptors amounted to 43%.

These data come from patent US8742106B2 (Novartis AG, priority 2009, dated 2014).
